Test results as given in the supplement of paper PMC11061612.

Columns and labels:
A101D (Melanoma) = experiment: Bliss excess, mean over the matrix (fraction); higher = more synergy
Procedure, shortened: (§1)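 Cell lines in DMEM/F12 or RPMI with 10% FBS were plated in 1536-well plates, held 24 hours at 37°C, 5% CO2, then given two-drug dose matrices for 72 hours (DMSO typically 0.2%). Viability was read by CellTiter-Glo 2.0 luminescence and scaled as inhibition from 0 (vehicle wells) to 1 (blank wells). Combination Emax is the second-highest inhibition in the matrix; Bliss excess is observed combination effect minus expected EA + EB − EA·EB, EA and EB being single-agent effects.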

[1] = tested on: A253 (Head and Neck Carcinoma); experiment: as above
Procedure, shortened: as §1

[2] = tested on: DMS-53 (Small Cell Lung Carcinoma); experiment: as above
Procedure, shortened: as §1

5637 (Bladder Carcinoma) = experiment: as above
Procedure, shortened: as §1

[3] = tested on: HCC1428 (Breast Carcinoma); experiment: as above
Procedure, shortened: as §1

[4] = tested on: huH-1 (Hepatocellular Carcinoma); experiment: as above
Procedure, shortened: as §1

A204 (Rhabdomyosarcoma) = experiment: as above
Procedure, shortened: as §1

[5] = tested on: NCI-H2228 (Lung Adenocarcinoma); experiment: as above
Procedure, shortened: as §1

[6] = tested on: GA-10 (Burkitt's Lymphoma); experiment: as above
Procedure, shortened: as §1

[7] = tested on: NCI-H841 (Small Cell Lung Carcinoma); experiment: combination Emax (second highest fraction inhibited in the dose matrix, 72 h); higher = more inhibition; extreme values may be limits of the assay
Procedure, shortened: as §1

MKN1 (Gastric Carcinoma) [8] = experiment: as above
Procedure, shortened: as §1

[9] = tested on: NCI-H841 (Small Cell Lung Carcinoma); experiment: Bliss excess, mean over the matrix (fraction); higher = more synergy
Procedure, shortened: as §1

KP-N-YN (Neuroblastoma) [10] = experiment: as above
Procedure, shortened: as §1

MKN1 (Gastric Carcinoma) [11] = experiment: as above
Procedure, shortened: as §1

[12] = tested on: TE-10 (Esophageal Squamous Cell Carcinoma); experiment: as above
Procedure, shortened: as §1

KP-N-YN (Neuroblastoma) [13] = experiment: combination Emax (second highest fraction inhibited in the dose matrix, 72 h); higher = more inhibition; extreme values may be limits of the assay
Procedure, shortened: as §1
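Throughout, for Bliss excess, mean over the matrix: after 72 h of two-drug dosing.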

Compound	Bliss excess (A101D (Melanoma))	Bliss excess [1]	Bliss excess [2]	Bliss excess (5637 (Bladder Carcinoma))	Bliss excess [3]	Bliss excess [4]	Bliss excess (A204 (Rhabdomyosarcoma))	Bliss excess [5]	Bliss excess [6]	combination Emax [7]	combination Emax (MKN1 (Gastric Carcinoma) [8])	Bliss excess [9]	Bliss excess (KP-N-YN (Neuroblastoma) [10])	Bliss excess (MKN1 (Gastric Carcinoma) [11])	Bliss excess [12]	combination Emax (KP-N-YN (Neuroblastoma) [13])
C[C@@H](c1ccc2nccn2c1)n1nnc2ncc(-c3cnn(C)c3)nc21 [Savolitinib] + CN(CC[C@H](CSC1=CC=CC=C1)NC2=C(C=C(C=C2)S(=O)(=O)NC(=O)C3=CC=C(C=C3)N4CCC(CC4)[C@H](C5=CC=CC=C5C6=CC=C(C=C6)Cl)O)S(=O)(=O)C(F)(F)F)CCO [AZD4320] (first compound max 1 µM, 7x7, partner max 1 µM)	-0.0202	-0.0569	-0.036	-0.057	-0.0206	-0.0456	-0.0484	-0.0527	-0.0196							
N#Cc1cnc(Nc2cc(NC[C@H]3CNCCO3)c(C(F)(F)F)cn2)cn1 [SRA737] + C=CCn1c(=O)c2cnc(Nc3ccc(N4CCN(C)CC4)cc3)nc2n1-c1cccc(C(C)(C)O)n1 [AZD1775] (first compound max 10 µM, partner max 1 µM)										0.514	0.916	0.0292	0.0762	0.0971		
CN(CCO)CC[C@H](CSc1ccccc1)Nc1ccc(S(=O)(=O)NC(=O)c2ccc(N3CCC([C@@H](O)c4ccccc4-c4ccc(Cl)cc4)CC3)cc2)cc1S(=O)(=O)C(F)(F)F [AZD4320] + C1CN(CCC1(C(=O)N[C@@H](CCO)C2=CC=C(C=C2)Cl)N)C3=NC=NC4=C3C=CN4 [Capivasertib] (first compound max 1 µM, 7x7, partner max 3 µM)	-0.0695	-0.0035	-0.0195	-0.0471	-0.0092	-0.0215	-0.0393	-0.0392	-0.0283				-0.0237		-0.0212	
CN(CCO)CC[C@H](CSc1ccccc1)Nc1ccc(S(=O)(=O)NC(=O)c2ccc(N3CCC([C@@H](O)c4ccccc4-c4ccc(Cl)cc4)CC3)cc2)cc1S(=O)(=O)C(F)(F)F [AZD4320] + Cn1cnc2c(F)c(Nc3ccc(Br)cc3Cl)c(C(=O)NOCCO)cc21 [Selumetinib] (first compound max 1 µM, 7x7, partner max 3 µM)	-0.0099	0.0339	0.0964	-0.0332	0.0011	-0.0106	-0.0054	0.0075	-0.0143				0.0076		-0.0187	
COc1nnc2ccc(N3CCC(c4ccc(OCCN5CCN(C)C(=O)[C@H]5C)cc4)CC3)nn12 [AZD5153] + CN(CC[C@H](CSC1=CC=CC=C1)NC2=C(C=C(C=C2)S(=O)(=O)NC(=O)C3=CC=C(C=C3)N4CCC(CC4)[C@H](C5=CC=CC=C5C6=CC=C(C=C6)Cl)O)S(=O)(=O)C(F)(F)F)CCO [AZD4320] (first compound max 1 µM, 7x7, partner max 1 µM)	0.0648	0.0043	-0.0168	0.122	0.0114	-0.0206	0.0084	0.0351	-0.0394							
COc1cc2ncnc(Nc3ccc(F)c(Cl)c3)c2cc1OCCCN1CCOCC1 [Gefitinib] + CC(C)n1c(=O)n(C)c2cnc3cc(F)c(-c4ccc(OCCCN5CCCCC5)nc4)cc3c21 [AZD1390] (first compound max 10 µM, 7x7, partner max 0.3 µM)	-0.083	-0.0551	-0.0243	-0.0467	-0.0393	-0.0593	-0.0563	-0.0704	-0.032	0.176	0.339	-0.0837	-0.045	-0.0669		0.318
CN(CCO)CC[C@H](CSc1ccccc1)Nc1ccc(S(=O)(=O)NC(=O)c2ccc(N3CCC([C@@H](O)c4ccccc4-c4ccc(Cl)cc4)CC3)cc2)cc1S(=O)(=O)C(F)(F)F [AZD4320] + CCN(CCO)CCCOc1ccc2c(Nc3cc(CC(=O)Nc4cccc(F)c4)[nH]n3)ncnc2c1 [AZD2811] (first compound max 1 µM, 7x7, partner max 1 µM)	0.0418	0.0364	-0.0067	-0.0117	0.16	0.0161	-0.0553	-0.0025	-0.0203				0.0516		0.038	
CN(CCO)CC[C@H](CSc1ccccc1)Nc1ccc(S(=O)(=O)NC(=O)c2ccc(N3CCC([C@@H](O)c4ccccc4-c4ccc(Cl)cc4)CC3)cc2)cc1S(=O)(=O)C(F)(F)F [AZD4320] + C[C@@H]1COCCN1C2=NC(=NC(=C2)C3(CC3)[S@](=N)(=O)C)C4=C5C=CNC5=NC=C4 [AZD6738] (first compound max 1 µM, 7x7, partner max 10 µM)	0.046	0.0045	0.0446	-0.05	0.0184	0.0215	-0.0207	-0.0628	-0.0075				-0.019		-0.0265	
